Data from EPA's CvTdb concentration-time database.

Legend:
[1] = test system: Rat; assay: concentration in plasma after dosing; conditions: dosed: 2-Hydroxy-4-methoxybenzophenone, 100 mg/kg, oral, Female, F344
[2] = test system: Mouse; assay: concentration in plasma after dosing; conditions: 3 h; dosed: 2-Hydroxy-4-methoxybenzophenone; 250 mg/kg; oral; Female; B6C3F1
[3] = test system: Mouse; assay: concentration in plasma after dosing; conditions: 2.5 min; dosed: 2-Hydroxy-4-methoxybenzophenone; 250 mg/kg; oral; Male; B6C3F1
[4] = test system: Rat; assay: concentration in plasma after dosing; conditions: dosed: 2-Hydroxy-4-methoxybenzophenone, 100 mg/kg, oral, Female, F344; remark: listed apart in the source
[5] = test system: Mouse; assay: concentration in plasma after dosing; conditions: 0.25 h; dosed: 2-Hydroxy-4-methoxybenzophenone; 250 mg/kg; oral; Male; B6C3F1
[6] = test system: Rat; assay: concentration in plasma after dosing; conditions: 2.5 min; dosed: 2-Hydroxy-4-methoxybenzophenone; 500 mg/kg; oral; Female; F344
[7] = test system: Rat; assay: concentration in plasma after dosing; conditions: dosed: 2-Hydroxy-4-methoxybenzophenone, 8 mg/kg, iv, Female, F344
[8] = test system: Mouse; assay: concentration in plasma after dosing; conditions: dosed: 2-Hydroxy-4-methoxybenzophenone, 100 mg/kg, oral, Female, B6C3F1
[9] = test system: Mouse; assay: concentration in plasma after dosing; conditions: dosed: 2-Hydroxy-4-methoxybenzophenone, 100 mg/kg, oral, Female, B6C3F1; remark: listed apart in the source
[10] = test system: Rat; assay: concentration in plasma after dosing; conditions: 2 min; dosed: Nitrite; 40 mg/kg; oral; Female; F344
[11] = test system: Rat; assay: concentration in brain after dosing; conditions: 12 h; dosed: Perfluorooctanoic acid; 12 mg/kg; oral; Male; Harlan Sprague Dawley
[12] = test system: Rat; assay: concentration in liver after dosing; conditions: 12 h; dosed: Fluorotelomer alcohol 8+2; 80 mg/kg; oral; Female; Harlan Sprague Dawley
[13] = test system: Rat; assay: concentration in liver after dosing; conditions: 0.5 h; dosed: Fluorotelomer alcohol 8+2; 24 mg/kg; oral; Male; Harlan Sprague Dawley
[14] = test system: Rat; assay: concentration in liver after dosing; conditions: 6 h; dosed: Fluorotelomer alcohol 8+2; 24 mg/kg; oral; Male; Harlan Sprague Dawley
[15] = test system: Rat; assay: concentration in kidney after dosing; conditions: 12 h; dosed: Fluorotelomer alcohol 8+2; 24 mg/kg; oral; Male; Harlan Sprague Dawley
[16] = test system: Rat; assay: concentration in plasma after dosing; conditions: dosed: 678-39-7, 12 mg/kg, iv, Male, F344
[17] = test system: Rat; assay: concentration in plasma after dosing; conditions: dosed: Fluorotelomer alcohol 8+2, 12 mg/kg, oral, Male, Harlan Sprague Dawley
[18] = test system: Rat; assay: concentration in kidney after dosing; conditions: 6 h; dosed: Perfluorooctanoic acid; 80 mg/kg; oral; Female; Harlan Sprague Dawley
[19] = test system: Rat; assay: concentration in kidney after dosing; conditions: 24 h; dosed: Perfluorooctanoic acid; 80 mg/kg; oral; Female; Harlan Sprague Dawley
[20] = test system: Rat; assay: concentration in kidney after dosing; conditions: 192 h; dosed: Perfluorooctanoic acid; 12 mg/kg; oral; Male; Harlan Sprague Dawley
[21] = test system: Rat; assay: concentration in liver after dosing; conditions: 1 h; dosed: Potassium Perfluorobutane Sulfonate; 20 mg/kg; oral; Female; Harlan Sprague Dawley
[22] = test system: Rat; assay: concentration in liver after dosing; conditions: 0.5 h; dosed: Potassium Perfluorobutane Sulfonate; 20 mg/kg; oral; Female; Harlan Sprague Dawley
[23] = test system: Rat; assay: concentration in plasma after dosing; conditions: 1.5 h; dosed: Potassium Perfluorobutane Sulfonate; 4 mg/kg; iv; Male; F344
[24] = test system: Rat; assay: concentration in plasma after dosing; conditions: 0.5 h; dosed: Potassium Perfluorobutane Sulfonate; 4 mg/kg; iv; Male; F344
[25] = test system: Rat; assay: concentration in kidney after dosing; conditions: 1 h; dosed: Potassium Perfluorobutane Sulfonate; 20 mg/kg; oral; Male; Harlan Sprague Dawley
[26] = test system: Rat; assay: concentration in kidney after dosing; conditions: 3 h; dosed: Potassium Perfluorobutane Sulfonate; 20 mg/kg; oral; Female; Harlan Sprague Dawley
[27] = test system: Rat; assay: concentration in plasma after dosing; conditions: dosed: Potassium Perfluorobutane Sulfonate, 4 mg/kg, iv, Male, F344
[28] = test system: rat; assay: concentration in serum after dosing; conditions: dosed: benzo[a]pyrene, male, Wistar
[29] = test system: rat; assay: concentration in blood after dosing; conditions: dosed: methanol, male, CDF(F344)/CrlBR

COc1ccc(C(=O)c2ccccc2)c(O)c1 [2-Hydroxy-4-methoxybenzophenone]
concentration in plasma [ng/mL]
Conditions	0.25 h	2 h	2.5 min	3 h	4 h	10 min
[1]	–	–	–	13.6	–	27.8
[4]	100	–	–	–	16.3	–
[7]	–	78.6	–	–	–	3030
[8]	151	13.9	29.6	9.13	–	62.3
[9]	81	4.58	15.3	5.05	–	37.3

Conditions	concentration in plasma [ng/mL]
[2]	36.8
[3]	22
[5]	289
[6]	12.8

O=N[O-] [Nitrite]
Conditions	concentration in plasma [ng/mL]
[10]	1900

O=C(O)C(F)(F)C(F)(F)C(F)(F)C(F)(F)C(F)(F)C(F)(F)C(F)(F)F [Perfluorooctanoic acid]
Conditions	concentration in brain [ng/g]	concentration in kidney [ng/g]	concentration in liver [ng/g]
[11]	1260	–	–
[12]	–	–	487
[13]	–	–	300
[14]	–	–	1450
[15]	–	365	–
[18]	–	178000	–
[19]	–	12300	–
[20]	–	14100	–

concentration in plasma [ng/mL]
Conditions	0.5 h	0.75 h	9 h	12 h
[16]	–	295	–	505
[17]	108	–	851	–

O=S(=O)([O-])C(F)(F)C(F)(F)C(F)(F)C(F)(F)F.[K+] [Potassium Perfluorobutane Sulfonate]
Conditions	concentration in kidney [ng/g]	concentration in liver [ng/g]	concentration in plasma [ng/mL]
[21]	–	30300	–
[22]	–	51300	–
[23]	–	–	2130
[24]	–	–	12000
[25]	22700	–	–
[26]	18600	–	–

[27]
Conditions	concentration in plasma [ng/mL]
3 h	476
5 min	29200

c1ccc2c(c1)cc1ccc3cccc4ccc2c1c34 [benzo[a]pyrene]
[28]
Conditions	concentration in serum [ng/mL]
0.3352 h, 2 mg/kg, iv	2230
0.4717 h, 20 mg/kg, oral	116
0.752 h, 2 mg/kg, iv	1020
1.006 h, 2 mg/kg, iv	635
1.061 h, 20 mg/kg, oral	486
1.985 h, 20 mg/kg, oral	989
2.002 h, 2 mg/kg, iv	85.5
3.99 h, 20 mg/kg, oral	936
4.005 h, 2 mg/kg, iv	4.48
5.975 h, 20 mg/kg, oral	261
5.998 h, 2 mg/kg, iv	2.43
7.98 h, 20 mg/kg, oral	86
8 h, 2 mg/kg, iv	2.04
9.966 h, 20 mg/kg, oral	16.8
24.02 h, 20 mg/kg, oral	1.38

CO [methanol]
[29], 200 ppm, inhalation, duration: 6 hr
Conditions	concentration in blood [ng/mL]
0 h	4780
0.5 h	2950
1 h	1990
1.5 h	3160
2 h	2100
3 h	949
4.5 h	1730
6 h	396
8 h	704
10 h	528

[29], 100 mg/kg, iv
Conditions	concentration in blood [ng/mL]
0.3747 h	90900
0.621 h	80500
1.114 h	70300
1.606 h	61300
2.08 h	60600
3.027 h	39200
4.505 h	26100
6.002 h	12200
